Assay results published in US20250127772A1, “SPECIFIC TETRADENTATE COPPER CHELATORS FOR THE TREATMENT OF WILSON'S DISEASE” (GUANGDONG UNIVERSITY OF TECHNOLOGY, priority 2023, published 2025).

System: hepatic DEPs
Test: Hepatic differentially expressed proteins (TMT LC-MS/MS) in treated TX mice
Assay type: in vivo, mouse
Protocol: In order to confirm the positive role of TDMQ20 in the treatment of TX mice, we performed proteomic experiments. Samples from three mice of each group were depicted in Table 1, The samples were treated with TMT (Tandem Mass Tag) and detected by quantitative LC-MS/MS, then the data were analyzed with ProteomeDiscoverer 2.4.1.15 (ThermoFisher Scientific). Confidence proteins were screened according to the criteria of Sequest program score greater than 0 and number of unique peptides greater than or equal to 1, and blank values were removed.
Other differentially expressed proteins (DEPs) were screened at p<0.05 in the WD mouse group compared to the control group. […] Results are reported in Table 3 and 4 for hepatic and serum proteins, respectively.

[1] = liver, 25 mg/kg/day, DEP down-regulated in WD
[2] = liver, 25 mg/kg/day, DEP up-regulated in WD
[3] = liver, 50 mg/kg/day, DEP down-regulated in WD
[4] = liver, 50 mg/kg/day, DEP up-regulated in WD

CN(C)CCNCCc1ccc2c(Cl)cc(Cl)c(N)c2n1 [TDMQ20]
hepatic DEPs TDMQ20-H/control ratio (TDMQ20 50 mg/kg): ~1
hepatic DEPs after treatment (TDMQ20 at 25 or 50 mg/kg): reversed to normal values
TDMQ20-M/control fold change: 2-Oxo-4-hydroxy-4-caboxy-5-ureidoimidazoline decarboxylase (Urad) [1]: 0.93
TDMQ20-M/control fold change: ATP-citrate synthase (Acly) [1]: 0.86
TDMQ20-M/control fold change: Alcohol deshydrogenase class-3 (Adh5) [1]: 0.89
TDMQ20-M/control fold change: Aspartate-tRNA ligase, cytoplasmic (Dars1) [1]: 1.03
TDMQ20-M/control fold change: Charged multivesicular body protein 7 (Chmp7) [1]: 1.04
TDMQ20-M/control fold change: Cytochrome P450 2C70 (Cyp2c70) [1]: 0.85
TDMQ20-M/control fold change: Desmin (Des) [1]: 0.88
TDMQ20-M/control fold change: Mesencephalic astrocyte-derived neurotrophic factor (Manf) [1]: 0.94
TDMQ20-M/control fold change: Nicotinamide/nicotinic acid mononucleotide adenylyltransferase 3 (Nmnat3) [1]: 0.97
TDMQ20-M/control fold change: Progranulin (Gm) [1]: 1.05
TDMQ20-M/control fold change: Putative phospholipase B-like 2 (Plbd2) [1]: 0.98
TDMQ20-M/control fold change: Pyridoxine-5′-phosphate oxidase (Pnpo) [1]: 1.01
TDMQ20-M/control fold change: Ribosome biogenesis protein BOP1 (Bop1) [1]: 1.08
TDMQ20-M/control fold change: Triosephosphate isomerase (Tpi1) [1]: 0.85
TDMQ20-M/control fold change: 28 kDa heat- and acid-stable phosphoprotein (Pdap1) [2]: 1.15
TDMQ20-M/control fold change: AN1-type zinc finger protein 6 (Zfand6) [2]: 1.09
TDMQ20-M/control fold change: ATP synthase subunit a (Mtatp6) [2]: 1.04
TDMQ20-M/control fold change: Afadin (Afdn) [2]: 1.07
TDMQ20-M/control fold change: Agmatinase, mitochondrial (Agmat) [2]: 1.15
TDMQ20-M/control fold change: Alanine glyoxylate aminotransferase (Agxt) [2]: 1.18
TDMQ20-M/control fold change: Alpha-1-antitrypsin-1-2 (Serpina1b) [2]: 1.09
TDMQ20-M/control fold change: Cyclin-dependent kinase inhibitor 1B (Cdkn1b) [2]: 1.13
TDMQ20-M/control fold change: Epsin-1 (Epn1) [2]: 1.05
TDMQ20-M/control fold change: Exosome complex exonuclease RRP44 (Dis3) [2]: 1.16
TDMQ20-M/control fold change: Histone H2A.V [2]: 1.14
TDMQ20-M/control fold change: Histone H2B type 1-H (H2bc9) [2]: 1.05
TDMQ20-M/control fold change: Histone H4 (H4c16) [2]: 1.12
TDMQ20-M/control fold change: Mitochondrial dicarboxylase carrier (Slc25a10) [2]: 1.10
TDMQ20-M/control fold change: Mitochondrial outer membrane protein SLC25A46 (Slc25a46) [2]: 1.10
TDMQ20-M/control fold change: NADPH adrenodoxin oxidoreductase, mitochondrial (Fdxr) [2]: 1.10
TDMQ20-M/control fold change: OCIA domain-containing protein 1 (Ociad1) [2]: 1.14
TDMQ20-M/control fold change: PRKC apoptosis WT1 regulator protein (Pawr) [2]: 1.10
TDMQ20-M/control fold change: Peroxisomal membrane protein-2 (Pxmp2) [2]: 1.14
TDMQ20-M/control fold change: Probable ATP-dependent RNA helicase DDX17 (Ddx17) [2]: 1.01
TDMQ20-M/control fold change: Protein Hook homolog 1 (Hook1) [2]: 1.07
TDMQ20-M/control fold change: Protein LYRIC (Mtdh) [2]: 0.85
TDMQ20-M/control fold change: Protein scribble homolog (Scrib) [2]: 1.07
TDMQ20-M/control fold change: Protein-glutamine gamma-glutamyltransferase K (Tgm1) [2]: 0.90
TDMQ20-M/control fold change: Regucalcin (Rgn) [2]: 1.07
TDMQ20-M/control fold change: Ribonuclease P protein subunit p30 (Rpp30) [2]: 1.20
TDMQ20-M/control fold change: SET nuclear proto-oncogene (Set) [2]: 0.95
TDMQ20-M/control fold change: Sideroflexin-5 (Sfxn5) [2]: 1.06
TDMQ20-M/control fold change: Zinc transporter 10 (Slc30a10) [2]: 0.94
TDMQ20-H/control fold change: 2-Oxo-4-hydroxy-4-caboxy-5-ureidoimidazoline decarboxylase (Urad) [3]: 0.96
TDMQ20-H/control fold change: ATP-citrate synthase (Acly) [3]: 0.97
TDMQ20-H/control fold change: Alcohol deshydrogenase class-3 (Adh5) [3]: 0.86
TDMQ20-H/control fold change: Aspartate-tRNA ligase, cytoplasmic (Dars1) [3]: 1.13
TDMQ20-H/control fold change: Charged multivesicular body protein 7 (Chmp7) [3]: 0.94
TDMQ20-H/control fold change: Cytochrome P450 2C70 (Cyp2c70) [3]: 0.88
TDMQ20-H/control fold change: Desmin (Des) [3]: 0.88
TDMQ20-H/control fold change: Mesencephalic astrocyte-derived neurotrophic factor (Manf) [3]: 0.91
TDMQ20-H/control fold change: Nicotinamide/nicotinic acid mononucleotide adenylyltransferase 3 (Nmnat3) [3]: 0.94
TDMQ20-H/control fold change: Progranulin (Gm) [3]: 1.04
TDMQ20-H/control fold change: Putative phospholipase B-like 2 (Plbd2) [3]: 0.99
TDMQ20-H/control fold change: Pyridoxine-5′-phosphate oxidase (Pnpo) [3]: 0.90
TDMQ20-H/control fold change: Ribosome biogenesis protein BOP1 (Bop1) [3]: 0.97
TDMQ20-H/control fold change: Triosephosphate isomerase (Tpi1) [3]: 0.90
TDMQ20-H/control fold change: 28 kDa heat- and acid-stable phosphoprotein (Pdap1) [4]: 1.10
TDMQ20-H/control fold change: AN1-type zinc finger protein 6 (Zfand6) [4]: 0.91
TDMQ20-H/control fold change: ATP synthase subunit a (Mtatp6) [4]: 0.91
TDMQ20-H/control fold change: Afadin (Afdn) [4]: 1.05
TDMQ20-H/control fold change: Agmatinase, mitochondrial (Agmat) [4]: 1.01
TDMQ20-H/control fold change: Alanine glyoxylate aminotransferase (Agxt) [4]: 1.03
TDMQ20-H/control fold change: Alpha-1-antitrypsin-1-2 (Serpina1b) [4]: 1.04
TDMQ20-H/control fold change: Cyclin-dependent kinase inhibitor 1B (Cdkn1b) [4]: 1.10
TDMQ20-H/control fold change: Epsin-1 (Epn1) [4]: 0.93
TDMQ20-H/control fold change: Exosome complex exonuclease RRP44 (Dis3) [4]: 1.00
TDMQ20-H/control fold change: Histone H2A.V [4]: 1.19
TDMQ20-H/control fold change: Histone H2B type 1-H (H2bc9) [4]: 1.07
TDMQ20-H/control fold change: Histone H4 (H4c16) [4]: 1.15
TDMQ20-H/control fold change: Mitochondrial dicarboxylase carrier (Slc25a10) [4]: 1.00
TDMQ20-H/control fold change: Mitochondrial outer membrane protein SLC25A46 (Slc25a46) [4]: 1.11
TDMQ20-H/control fold change: NADPH adrenodoxin oxidoreductase, mitochondrial (Fdxr) [4]: 1.04
TDMQ20-H/control fold change: OCIA domain-containing protein 1 (Ociad1) [4]: 1.08
TDMQ20-H/control fold change: PRKC apoptosis WT1 regulator protein (Pawr) [4]: 1.18
TDMQ20-H/control fold change: Peroxisomal membrane protein-2 (Pxmp2) [4]: 0.98
TDMQ20-H/control fold change: Probable ATP-dependent RNA helicase DDX17 (Ddx17) [4]: 1.11
TDMQ20-H/control fold change: Protein Hook homolog 1 (Hook1) [4]: 0.94
TDMQ20-H/control fold change: Protein LYRIC (Mtdh) [4]: 1.06
TDMQ20-H/control fold change: Protein scribble homolog (Scrib) [4]: 1.09
TDMQ20-H/control fold change: Protein-glutamine gamma-glutamyltransferase K (Tgm1) [4]: 0.84
TDMQ20-H/control fold change: Regucalcin (Rgn) [4]: 0.91
TDMQ20-H/control fold change: Ribonuclease P protein subunit p30 (Rpp30) [4]: 1.20
TDMQ20-H/control fold change: SET nuclear proto-oncogene (Set) [4]: 1.01
TDMQ20-H/control fold change: Sideroflexin-5 (Sfxn5) [4]: 0.96
TDMQ20-H/control fold change: Zinc transporter 10 (Slc30a10) [4]: 0.9
